Our source for the EC50 and CC50 values is patent publication US12264159B2, “Functionalized heterocycles as antiviral agents” (Enanta Pharmaceuticals, Inc., priority 2018, dated 2025).

The structures appear in SMILES notation.

In series [1] the test system is HBV in 2.2.15 cells. In words: 2.2.15 cells: viral product in cell lysates quantified via quantitative real time PCR. The conditions noted are these: Hepatitis B virus, 120 h, day 5 post treatment, 50% reduction of viral product vs no drug controls, readout (qPCR, HBsAg or HBeAg) not specified for the column. It counts as cell-based, hepatitis B virus (HBV). The method, boiled down: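 2.2.15 cells (35,000/well, DMEM/F12, 10% FBS, G418) were treated with 5-fold serial compound dilutions, 0.5% DMSO final. After 5 days, lysates were quantified by qPCR, or supernatant HBsAg/HBeAg by ELISA; EC50 is the concentration giving 50% reduction versus no-drug controls.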
A general note: Quantitative PCR measures a nucleic acid by following its amplification.

A short description of series [2]: Compound induced cellular toxicity in HepG2 cells, ATPlite 1Step. It counts as cell-based. Particulars: human, three days exposure, 50% reduction of total ATP vs no drug controls. As to the method:
At day 3, post seeding cells are treated with ATPlite 1Step according to the manufacturer's instructions.

The compound `Cc1cccc(-c2c(C3CC3)nn3c2-c2cc(=O)c(C(=O)O)cn2[C@H](C(C)(C)C)C3)c1` [Example 153, (R)-6-(tert-butyl)-2-cyclopropyl-10-oxo-1-(m-tolyl)-5,6-dihydro-10H-pyrazolo[1,5-a]pyrido[2,1-c]pyrazine-9-carboxylic acid] returned an EC50 in series [1] of less than 100 nM. The CC50 at 3 days in series [2] lay within 10000 to 25000 nM.
`CCOc1ccccc1-c1nc2n(n1)C[C@@H](C(C)(C)C)n1cc(C(=O)O)c(=O)cc1-2` [Example 86, (R)-6-(tert-butyl)-2-(2-ethoxyphenyl)-10-oxo-5,6-dihydro-10H-pyrido[1,2-a][1,2,4]triazolo[5,2-c]pyrazine-12-carboxylic acid] came in with an EC50 in series [1] of less than 100 nM. This compound registered a 50% cytotoxic concentration (CC50) at 3 days in series [2] of more than 25000 nM.
In series [1], `CC(C)(C)[C@@H]1Cn2nc(-c3cccc4c3OCCCO4)cc2-c2cc(=O)c(C(=O)O)cn21` [Example 43, (R)-6-(tert-butyl)-2-(3,4-dihydro-2H-benzo[b][1,4]dioxepin-6-yl)-10-oxo-5,6-dihydro-10H-pyrazolo[1,5-a]pyrido[2,2-c]pyrazine-12-carboxylic acid] gave an EC50 of less than 100 nM. The compound also displayed a CC50 at 3 days in series [2] of more than 25000 nM.
The compound `CC(C)(C)[C@@H]1Cn2nc(-c3ccc(F)cc3)c(-c3ccc(F)cc3)c2-c2cc(=O)c(-c3ncn[nH]3)cn21` [Example 194, (R)-6-(tert-butyl)-1,2-bis(4-fluorophenyl)-9-(1H-1,2,4-triazol-5-yl)-5,6-dihydro-10H-pyrazolo[1,5-a]pyrido[2,1-c]pyrazin-10-one] displayed an EC50 in series [1] of less than 100 nM. Also, the CC50 at 3 days in series [2] lay in the range of 10000 to 25000 nM.
Taken in the same sequence, the figures for `COc1ccccc1-c1cc2n(n1)C[C@@H](C(C)(C)C)n1cc(C(=O)O)c(=O)cc1-2` [Example 12] were less than 100 nM and more than 25000 nM.
In series [1], `CC(C)(C)[C@@H]1Cn2nc(-c3ccc(F)c(F)c3F)cc2-c2cc(=O)c(C(=O)O)cn21` [Example 44, (R)-6-(tert-butyl)-10-oxo-2-(2,3,4-trifluorophenyl)-5,6-dihydro-10H-pyrazolo[1,5-a]pyrido[2,2-c]pyrazine-12-carboxylic acid] yielded a concentration giving a half-maximal response (EC50) of less than 100 nM. In series [2], this compound came in with a CC50 at 3 days of more than 25000 nM.
Turning to `CC(C)(C)[C@@H]1Cn2nc(-c3ccccc3C#N)cc2-c2cc(=O)c(C(=O)O)cn21` [Example 40, (R)-6-(tert-butyl)-2-(2-cyanophenyl)-10-oxo-5,6-dihydro-10H-pyrazolo[1,5-a]pyrido[2,2-c]pyrazine-12-carboxylic acid], the EC50 in series [1] is less than 100 nM. The compound also showed a CC50 at 3 days in series [2] of more than 25000 nM.
For the compound `CC(C)(C)[C@@H]1Cn2nc(-c3cccc4ccoc34)cc2-c2cc(=O)c(C(=O)O)cn21` [Example 27, (R)-2-(benzofuran-7-yl)-6-(tert-butyl)-10-oxo-5,6-dihydro-10H-pyrazolo[1,5-a]pyrido[2,2-c]pyrazine-12-carboxylic acid], in series [1], the EC50 was less than 100 nM. For the same compound, the CC50 at 3 days in series [2] is more than 25000 nM.
In series [1], `CC(C)(C)[C@@H]1Cn2nc(C3CC3)c(-c3ccco3)c2-c2cc(=O)c(C(=O)O)cn21` [Example 159, (R)-6-(tert-butyl)-2-cyclopropyl-1-(furan-2-yl)-10-oxo-5,6-dihydro-10H-pyrazolo[1,5-a]pyrido[2,1-c]pyrazine-9-carboxylic acid] registered an EC50 of less than 100 nM. Also, in series [2], the CC50 at 3 days was more than 25000 nM.
Taken in the same sequence, the figures for `CC(C)(C)[C@@H]1Cn2nc(C3CC3)c(-c3ccccc3)c2-c2cc(=O)c(-c3ncn[nH]3)cn21` [Example 195, (R)-6-(tert-butyl)-2-cyclopropyl-1-phenyl-9-(1H-1,2,4-triazol-5-yl)-5,6-dihydro-10H-pyrazolo[1,5-a]pyrido[2,1-c]pyrazin-10-one] were less than 100 nM and more than 25000 nM.
Consider `CC(C)(C)[C@@H]1Cn2nc(C3CC3)c(-c3cccc4scnc34)c2-c2cc(=O)c(C(=O)O)cn21` [Example 164, (R)-1-(benzo[d]thiazol-4-yl)-6-(tert-butyl)-2-cyclopropyl-10-oxo-5,6-dihydro-10H-pyrazolo[1,5-a]pyrido[2,1-c]pyrazine-9-carboxylic acid], for which, in series [1], the EC50 is less than 100 nM. For the same compound, in series [2], the CC50 at 3 days was more than 25000 nM.
With `CC(C)[C@@H]1Cn2nc(C3CC3)c(-c3ccc(F)cc3)c2-c2cc(=O)c(C(=O)O)cn21` [Example 133, (R)-2-cyclopropyl-1-(4-fluorophenyl)-6-isopropyl-10-oxo-5,6-dihydro-10H-pyrazolo[1,5-a]pyrido[2,1-c]pyrazine-9-carboxylic acid], in series [1], the EC50 is less than 100 nM. This compound had a CC50 at 3 days in series [2] of more than 25000 nM.
The compound `O=C(O)c1cn2c(cc1=O)-c1c(-c3cccc(F)c3)c(-c3cccc(F)c3)nn1C[C@H]2C1COC1` [Example 209, (R)-1,2-bis(3-fluorophenyl)-6-(oxetan-3-yl)-10-oxo-5,6-dihydro-10H-pyrazolo[1,5-a]pyrido[2,1-c]pyrazine-9-carboxylic acid] registered an EC50 in series [1] of less than 100 nM. For the same compound, in series [2], the CC50 at 3 days is more than 25000 nM.
In the same order, the values of `CC(C)[C@@H]1Cn2nc(C3CC3)c(-c3ccccc3F)c2-c2cc(=O)c(C(=O)O)cn21` [Example 129, (R)-2-cyclopropyl-1-(2-fluorophenyl)-6-isopropyl-10-oxo-5,6-dihydro-10H-pyrazolo[1,5-a]pyrido[2,1-c]pyrazine-9-carboxylic acid] are less than 100 nM and more than 25000 nM.
Take `CC(C)(C)[C@@H]1Cn2nc(-c3ccccc3OC(F)(F)F)cc2-c2cc(=O)c(C(=O)O)cn21` [Example 24, (R)-6-(tert-butyl)-10-oxo-2-(2-(trifluoromethoxy)phenyl)-5,6-dihydro-10H-pyrazolo[1,5-a]pyrido[2,2-c]pyrazine-12-carboxylic acid]: the EC50 in series [1] is less than 100 nM. The CC50 at 3 days in series [2] was more than 25000 nM.
`CC(C)(C)[C@@H]1Cn2nc(-c3cc(F)ccc3C#N)cc2-c2cc(=O)c(C(=O)O)cn21` [Example 42, (R)-6-(tert-butyl)-2-(2-cyano-5-fluorophenyl)-10-oxo-5,6-dihydro-10H-pyrazolo[1,5-a]pyrido[2,2-c]pyrazine-12-carboxylic acid] yielded an EC50 in series [1] of less than 100 nM. Besides, the CC50 at 3 days in series [2] was more than 25000 nM.
In series [1], `CC(C)(C)[C@@H]1Cn2nc(-c3cccc4c3OC(F)(F)O4)c(Cl)c2-c2cc(=O)c(C(=O)O)cn21` [Example 88, (R)-6-(tert-butyl)-1-chloro-2-(2,2-difluorobenzo[d][1,3]dioxol-4-yl)-10-oxo-5,6-dihydro-10H-pyrazolo[1,5-a]pyrido[2,1-c]pyrazine-9-carboxylic acid] displayed an EC50 of less than 100 nM. In series [2], the CC50 at 3 days is more than 25000 nM.
With `COc1ccccc1-c1cnn2c1-c1cc(=O)c(C(=O)O)cn1[C@H](C(C)(C)C)C2` [Example 112, (R)-6-(tert-butyl)-1-(2-methoxyphenyl)-10-oxo-5,6-dihydro-10H-pyrazolo[1,5-a]pyrido[2,1-c]pyrazine-9-carboxylic acid], the EC50 in series [1] is less than 100 nM. Further, in series [2], the CC50 at 3 days was more than 25000 nM.
Regarding `CC(C)(C)[C@@H]1Cn2nc(-c3ccccc3C(F)F)cc2-c2cc(=O)c(C(=O)O)cn21` [Example 85], the EC50 in series [1] was in the range of 200 to 1000 nM. In series [2], this compound displayed a CC50 at 3 days of more than 25000 nM.
With `CC(C)(C)[C@@H]1Cn2nc(-c3ccc(F)cc3F)cc2-c2cc(=O)c(C(=O)O)cn21` [Example 8, (R)-6-(tert-butyl)-2-(2,4-difluorophenyl)-10-oxo-5,6-dihydro-10H-pyrazolo[1,5-a]pyrido[2,2-c]pyrazine-12-carboxylic acid], the EC50 in series [1] is less than 100 nM. The CC50 at 3 days in series [2] was more than 25000 nM.
In the case of `CC(C)(C)[C@@H]1Cn2ncc(-c3cccc(OC(F)(F)F)c3)c2-c2cc(=O)c(C(=O)O)cn21` [Example 116, (R)-6-(tert-butyl)-10-oxo-1-(3-(trifluoromethoxy)phenyl)-5,6-dihydro-10H-pyrazolo[1,5-a]pyrido[2,1-c]pyrazine-9-carboxylic acid], the EC50 in series [1] was less than 100 nM. For the same compound, the CC50 at 3 days in series [2] was more than 25000 nM.
Consider `COc1ncc(-c2cc3n(n2)C[C@@H](C(C)(C)C)n2cc(C(=O)O)c(=O)cc2-3)cn1` [Example 6, (R)-6-(tert-butyl)-2-(2-methoxypyrimidin-5-yl)-10-oxo-5,6-dihydro-10H-pyrazolo[1,5-a]pyrido[2,2-c]pyrazine-12-carboxylic acid], for which the EC50 in series [1] was less than 100 nM. The same compound came in with a CC50 at 3 days in series [2] of more than 25000 nM.
In series [1], `CC(C)(C)[C@@H]1Cn2nc(-c3ccccc3OC3CC3)cc2-c2cc(=O)c(C(=O)O)cn21` [Example 81, (R)-6-(tert-butyl)-2-(2-cyclopropoxyphenyl)-10-oxo-5,6-dihydro-10H-pyrazolo[1,5-a]pyrido[2,2-c]pyrazine-12-carboxylic acid] had an EC50 of less than 100 nM. In addition, the CC50 at 3 days in series [2] was more than 25000 nM.
In series [1], `CC(C)(C)[C@@H]1Cn2nc(-c3cccc4c3sc3ccccc34)cc2-c2cc(=O)c(C(=O)O)cn21` [Example 70, (R)-6-(tert-butyl)-2-(dibenzo[b,d]thiophen-4-yl)-10-oxo-5,6-dihydro-10H-pyrazolo[1,5-a]pyrido[2,2-c]pyrazine-12-carboxylic acid] displayed an EC50 of 200 to 1000 nM. In addition, in series [2], the CC50 at 3 days is more than 25000 nM.
As for `Cc1ncc(-c2cc3n(n2)C[C@@H](C(C)(C)C)n2cc(C(=O)O)c(=O)cc2-3)s1` [Example 19, (R)-6-(tert-butyl)-2-(2-methylthiazol-5-yl)-10-oxo-5,6-dihydro-10H-pyrazolo[1,5-a]pyrido[2,2-c]pyrazine-12-carboxylic acid], the EC50 in series [1] is less than 100 nM. The compound further gave a CC50 at 3 days in series [2] of more than 25000 nM.
The compound `CC(C)(C)[C@@H]1Cn2nc(-c3cnco3)cc2-c2cc(=O)c(C(=O)O)cn21` [Example 7, (R)-6-(tert-butyl)-2-(oxazol-5-yl)-10-oxo-5,6-dihydro-10H-pyrazolo[1,5-a]pyrido[2,2-c]pyrazine-12-carboxylic acid] returned an EC50 in series [1] of 200 to 1000 nM. In series [2], this compound yielded a CC50 at 3 days of more than 25000 nM.

By EC50 is commonly meant the concentration that produces a half-maximal response. The low end stands for greater potency, the high end for weaker potency. The CC50 is the concentration giving 50% cytotoxicity. Read a high CC50 as better tolerance by the cells.
